Source: patent publication US7906122B2 (priority 2003, dated 2011)

Tested on: the 3 viral strains (pooled HN)
Design: species or system BALB/c mice
Settings: mouse, in vivo

N-palmitoyl D-erythro sphingosyl carbamoyl-spermine [CCS]
immunogenicity of CCS alone compared to CCS/Chol as the vaccine carrier: no difference in immunogenicity
